Counter-ions that a name gives are not always drawn.
Target: T1, c-Met (Homo sapiens, UniProt P08581)
Test: c-Met inhibitory assay using DeskTop Profiler (Method B)
Format: biochemical
Design: made in house
Settings: ATP 43 μM
Method: Method B) c-Met Inhibitory Assay Using DeskTop Profiler
Target sequence in this assay (P08581 25-1390): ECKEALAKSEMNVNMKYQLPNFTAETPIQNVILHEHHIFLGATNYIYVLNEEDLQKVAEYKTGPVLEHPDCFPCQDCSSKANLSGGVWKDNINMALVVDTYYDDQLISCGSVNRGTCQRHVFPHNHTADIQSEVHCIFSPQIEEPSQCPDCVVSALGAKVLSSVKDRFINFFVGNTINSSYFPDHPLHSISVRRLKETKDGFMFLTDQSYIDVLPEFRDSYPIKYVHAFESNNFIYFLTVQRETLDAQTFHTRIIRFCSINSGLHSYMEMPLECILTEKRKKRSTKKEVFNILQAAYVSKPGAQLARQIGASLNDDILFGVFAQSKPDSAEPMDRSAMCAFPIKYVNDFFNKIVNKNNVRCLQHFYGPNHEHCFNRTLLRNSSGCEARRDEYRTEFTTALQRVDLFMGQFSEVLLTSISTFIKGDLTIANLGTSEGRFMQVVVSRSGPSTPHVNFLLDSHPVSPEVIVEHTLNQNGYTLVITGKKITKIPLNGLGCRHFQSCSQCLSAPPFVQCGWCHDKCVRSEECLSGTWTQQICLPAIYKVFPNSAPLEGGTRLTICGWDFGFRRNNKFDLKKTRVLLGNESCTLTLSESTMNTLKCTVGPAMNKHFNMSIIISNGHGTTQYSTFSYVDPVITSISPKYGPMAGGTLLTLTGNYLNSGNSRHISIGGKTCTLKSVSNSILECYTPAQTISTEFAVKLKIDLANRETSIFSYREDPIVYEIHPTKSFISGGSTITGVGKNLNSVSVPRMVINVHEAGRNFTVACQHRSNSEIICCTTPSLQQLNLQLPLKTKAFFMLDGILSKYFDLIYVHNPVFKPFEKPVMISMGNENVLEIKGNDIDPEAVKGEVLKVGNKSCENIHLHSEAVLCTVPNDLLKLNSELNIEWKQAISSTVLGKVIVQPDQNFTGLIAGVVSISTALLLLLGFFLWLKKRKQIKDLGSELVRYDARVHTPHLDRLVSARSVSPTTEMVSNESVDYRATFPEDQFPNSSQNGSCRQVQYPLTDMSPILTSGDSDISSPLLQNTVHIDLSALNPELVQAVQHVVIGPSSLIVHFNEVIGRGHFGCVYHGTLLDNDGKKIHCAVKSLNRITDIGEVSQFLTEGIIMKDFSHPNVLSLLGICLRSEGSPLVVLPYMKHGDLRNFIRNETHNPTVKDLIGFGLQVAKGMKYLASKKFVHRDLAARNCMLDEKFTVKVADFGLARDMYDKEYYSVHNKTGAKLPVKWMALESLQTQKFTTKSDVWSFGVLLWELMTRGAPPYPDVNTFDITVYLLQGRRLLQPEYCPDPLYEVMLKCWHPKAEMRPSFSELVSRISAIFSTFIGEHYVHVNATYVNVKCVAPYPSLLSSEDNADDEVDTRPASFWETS
A dephosphorylation enzyme inhibitor cocktail (PhosSTOP, #4906837, product of Roche) and a protease inhibitor cocktail (Complete, Mini, EDTA-free, #1836170; product of Roche) were added to a reaction buffer (100 mM HEPES (pH: 7.5), 10 mM MgCl2, 0.003% Brij-35, 0.04% Tween, and 1 mM DTT). In the presence of the compound of the present invention, recombinant c-Met (purified product of Taiho Pharmaceutical Co., Ltd.), fluorescence-labeled c-Met substrate peptide (FL-Peptide 2, #760346, Caliper Life Sciences) (final concentration: 1.5 μM), and ATP (final concentration: 43 μM) were added thereto, and the mixture was allowed to react at 28° C. for 90 minutes. EDTA was added to the reaction mixture to a final concentration of 10 mM, to thereby terminate reaction. By use of DeskTop Profiler (#119900, Caliper Life Sciences), each fluorescence intensity of the substrate and that of the phosphorylated product was determined, whereby the amount of the formed phosphorylated product was determined. The compound concentration that realizes 50% inhibition of formation of phosphorylated product was defined as IC50 (μM), and the results are shown in the following Tables.

Point of comparison: `COCCNC(=O)CNC(=O)c1cc2c(Oc3ccc(NC(=S)NC(=O)Cc4ccccc4)cc3F)ccnc2cc1OC` [Example 33, 4-(2-Fluoro-4-(3-(2-phenylacetyl)thioureido)phenoxy)-7-methoxy-N-(2-(2-methoxyethylamino)-2-oxoethyl)quinoline-6-carboxamide], IC50 12 nM. Against it:
- CC[C@@H](CO)NC(=O)c1cc2c(Oc3ccc(NC(=S)NC(=O)Cc4ccccc4)cc3F)ccnc2cc1OC [Example 31, (S)-4-(2-Fluoro-4-(3-(2-phenylacetyl)thioureido)phenoxy)-N-(1-hydroxybutan-2-yl)-7-methoxyquinoline-6-carboxamide] — 2.2-fold higher, 26 nM
- CCN(CC(C)(C)O)C(=O)CNC(=O)c1cc2c(Oc3ccc(NC(=S)NC(=O)Cc4ccccc4)cc3F)ccnc2cc1OC [Example 35, N-(2-(Ethyl(2-hydroxy-2-methylpropyl)amino)-2-oxoethyl)-4-(2-fluoro-4-(3-(2-phenylacetyl)thioureido)phenoxy)-7-methoxyquinoline-6-carboxamide] — 2.6-fold higher, 31 nM
- COc1cc2nccc(Oc3ccc(NC(=S)NC(=O)Cc4ccccc4)cc3F)c2cc1C(=O)NCCC(=O)N(C)C [Example 36, N-(3-(Dimethylamino)-3-oxopropyl)-4-(2-fluoro-4-(3-(2-phenylacetyl)thioureido)phenoxy)-7-methoxyquinoline-6-carboxamide] — 4.3-fold higher, 52 nM

Target: T1, c-Met
Test: c-Met inhibitory assay using AlphaScreen (Method A)
Format: biochemical
Design: purchased Carna bio Co., Ltd 08-051
Settings: ATP 20 μM
Method: Inhibitory activity of compounds against c-Met kinase was determined through the following procedures. Method A) c-Met inhibitory assay using AlphaScreen™
A biotinylated peptide including a phosphorylated site of Pyk2 (Tyr402), which is reported as a bio-substrate in Clin. Cancer Res. vol. […] The mixture was allowed to react at room temperature for 20 minutes. EDTA was added to the reaction mixture to a final concentration of 50 mM, to thereby terminate reaction. […] The reaction was done for one hour at room temperature. Thereafter, the fluorescence intensity from the reaction mixture was measured using a multi-label counter (EnVision™, Perkin Elmer).
Target sequence in this assay (P08581 956-1390 limits assumed): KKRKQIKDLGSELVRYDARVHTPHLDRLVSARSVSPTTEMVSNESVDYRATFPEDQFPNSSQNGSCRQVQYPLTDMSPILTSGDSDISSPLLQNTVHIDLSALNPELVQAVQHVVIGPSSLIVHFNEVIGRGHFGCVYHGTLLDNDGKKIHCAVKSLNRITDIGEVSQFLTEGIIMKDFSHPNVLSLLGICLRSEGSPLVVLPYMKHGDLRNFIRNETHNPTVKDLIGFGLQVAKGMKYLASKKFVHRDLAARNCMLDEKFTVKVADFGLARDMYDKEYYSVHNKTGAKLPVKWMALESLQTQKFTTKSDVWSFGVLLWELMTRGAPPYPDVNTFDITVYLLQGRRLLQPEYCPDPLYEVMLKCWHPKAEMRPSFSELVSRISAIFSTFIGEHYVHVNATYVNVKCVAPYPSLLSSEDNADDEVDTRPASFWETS

Point of comparison: `COc1cc2nccc(Oc3ccc(NC(=S)NC(=O)Cc4ccccc4)cc3F)c2cc1C(=O)NCc1cccnc1` [Example 4, 4-(2-Fluoro-4-(3-(2-phenylacetyl)thioureido)phenoxy)-7-methoxy-N-(pyridin-3-ylmethyl)quinoline-6-carboxamide], IC50 140 nM. Against it:
- COc1cc2nccc(Oc3ccc(NC(=S)NC(=O)Cc4ccccc4)cc3F)c2cc1C(=O)NCCCOC(C)C [Example 1, 4-(2-Fluoro-4-(3-(2-phenylacetyl)thioureido)phenoxy)-N-(3-isopropyloxypropyl)-7-methoxyquinoline-6-carboxamide] — 1.5-fold higher, 210 nM
- COc1cc2nccc(Oc3ccc(NC(=S)NC(=O)Cc4ccccc4)cc3F)c2cc1C(=O)NCC1COC(C)(C)O1 (stereo not drawn) [Example 2, N-((2,2-Dimethyl-1,3-dioxolan-4-yl)methyl)-4-(2-fluoro-4-(3-(2-phenylacetyl)thioureido)phenoxy)-7-methoxyquinoline-6-carboxamide] — within 1.5-fold, 167 nM
- COc1cc2nccc(Oc3ccc(NC(=S)NC(=O)Cc4ccccc4)cc3F)c2cc1C(=O)NCC(O)CO (stereo not drawn) [Example 3, N-(2,3-Dihydroxypropyl)-4-(2-fluoro-4-(3-(2-phenylacetyl)thioureido)phenoxy)-7-methoxyquinoline-6-carboxamide] — 2.3-fold lower, 62 nM
- CNC(=O)c1cc2c(Oc3ccc(NC(=S)NC(=O)Cc4ccccc4)cc3F)ccnc2cc1OC [Example 6, 4-(2-Fluoro-4-(3-(2-phenylacetyl)thioureido)phenoxy)-7-methoxy-N-methylquinoline-6-carboxamide] — within 1.5-fold, 104 nM
- COCCNC(=O)c1cc2c(Oc3ccc(NC(=S)NC(=O)Cc4ccccc4)cc3F)ccnc2cc1OC [Example 7, 4-(2-Fluoro-4-(3-(2-phenylacetyl)thioureido)phenoxy)-7-methoxy-N-(methoxyethyl)quinoline-6-carboxamide] — 2.8-fold lower, 50 nM
- CCN(CC)CCNC(=O)c1cc2c(Oc3ccc(NC(=S)NC(=O)Cc4ccccc4)cc3F)ccnc2cc1OC [Example 8, N-(2-(Diethylamino)ethyl)-4-(2-fluoro-4-(3-(2-phenylacetyl)thioureido)phenoxy)-7-methoxyquinoline-6-carboxamide] — within 1.5-fold, 106 nM
- COc1cc2nccc(Oc3ccc(NC(=S)NC(=O)Cc4ccccc4)cc3F)c2cc1C(=O)NCCN1CCOCC1 [Example 9, 4-(2-Fluoro-4-(3-(2-phenylacetyl)thioureido)phenoxy)-7-methoxy-N-(2-morpholinoethyl)quinoline-6-carboxamide] — within 1.5-fold, 102 nM
- COc1cc2nccc(Oc3ccc(NC(=S)NC(=O)Cc4ccccc4)cc3F)c2cc1C(=O)NCCOCCO [Example 10, 4-(2-Fluoro-4-(3-(2-phenylacetyl)thioureido)phenoxy)-N-(2-(2-hydroxyethoxy)ethyl)-7-methoxyquinoline-6-carboxamide] — 2.1-fold lower, 68 nM
- COc1cc2nccc(Oc3ccc(NC(=S)NC(=O)Cc4ccccc4)cc3F)c2cc1C(=O)NCCNC(C)=O [Example 11, N-(2-Acetamidoethyl)-4-(2-fluoro-4-(3-(2-phenylacetyl)thioureido)phenoxy)-7-methoxyquinoline-6-carboxamide] — within 1.5-fold, 145 nM
- COc1cc2nccc(Oc3ccc(NC(=S)NC(=O)Cc4ccccc4)cc3F)c2cc1C(=O)NC(CO)CO [Example 12, N-(1,3-Dihydroxypropan-2-yl)-4-(2-fluoro-4-(3-(2-phenylacetyl)thioureido)phenoxy)-7-methoxyquinoline-6-carboxamide] — 2.7-fold lower, 52 nM
- COc1cc2nccc(Oc3ccc(NC(=S)NC(=O)Cc4ccccc4)cc3F)c2cc1C(=O)NC1CCNCC1 [Example 14, 4-(2-Fluoro-4-(3-(2-phenylacetyl)thioureido)phenoxy)-7-methoxy-N-(piperidin-4-yl)quinoline-6-carboxamide dihydrochloride] — within 1.5-fold, 157 nM
- COc1cc2nccc(Oc3ccc(NC(=S)NC(=O)Cc4ccccc4)cc3F)c2cc1C(=O)NC1CCCCNC1=O (stereo not drawn) [Example 16, 4-(2-Fluoro-4-(3-(2-phenylacetyl)thioureido)phenoxy)-7-methoxy-N-(2-oxoazepan-3-yl)quinoline-6-carboxamide] — within 1.5-fold, 177 nM
- COc1cc2nccc(Oc3ccc(NC(=S)NC(=O)Cc4ccccc4)cc3F)c2cc1C(=O)NCC(=O)N1CCCC1 [Example 17, 4-(2-Fluoro-4-(3-(2-phenylacetyl)thioureido)phenoxy)-7-methoxy-N-(2-oxo-2-(pyrrolidin-1-yl)ethyl)quinoline-6-carboxamide] — 4.7-fold lower, 30 nM
- COc1cc2nccc(Oc3ccc(NC(=S)NC(=O)Cc4ccccc4)cc3F)c2cc1C(=O)NC1CCN(C(C)=O)CC1 [Example 18, N-(1-Acetylpiperidin-4-yl)-4-(2-fluoro-4-(3-(2-phenylacetyl)thioureido)phenoxy)-7-methoxyquinoline-6-carboxamide] — 2.1-fold higher, 300 nM
- CCC(O)CNC(=O)c1cc2c(Oc3ccc(NC(=S)NC(=O)Cc4ccc(F)cc4)cc3F)ccnc2cc1OC (stereo not drawn) [Example 23, 4-(2-Fluoro-4-(3-(2-(4-fluorophenyl)acetyl)thioureido)phenoxy)-N-(2-hydroxybutyl)-7-methoxyquinoline-6-carboxamide] — 1.8-fold higher, 250 nM
- COc1cc2nccc(Oc3ccc(NC(=S)NC(=O)Cc4ccccc4)cc3F)c2cc1C(=O)NCC1(O)CCCCC1 [Example 25, 4-(2-Fluoro-4-(3-(2-phenylacetyl)thioureido)phenoxy)-N-((1-hydroxycyclohexyl)methyl)-7-methoxyquinoline-6-carboxamide] — 1.9-fold lower, 72 nM
- COc1cc2nccc(Oc3ccc(NC(=S)NC(=O)Cc4ccccc4)cc3F)c2cc1C(=O)NCC1(O)CCOCC1 [Example 26, 4-(2-Fluoro-4-(3-(2-phenylacetyl)thioureido)phenoxy)-N-((4-hydroxytetrahydro-2H-pyran-4-yl)methyl)-7-methoxyquinoline-6-carboxamide] — within 1.5-fold, 125 nM
- COc1cc2nccc(Oc3ccc(NC(=S)NC(=O)Cc4ccccc4)cc3F)c2cc1C(=O)Nc1ccccc1C [Example 28, 4-(2-Fluoro-4-(3-(2-phenylacetyl)thioureido)phenoxy)-7-methoxy-N-o-tolylquinoline-6-carboxamide] — within 1.5-fold, 94 nM
- COc1cc2nccc(Oc3ccc(NC(=S)NC(=O)Cc4ccccc4)cc3F)c2cc1C(=O)N[C@H](CO)c1ccccc1 [Example 29, (S)-4-(2-Fluoro-4-(3-(2-phenylacetyl)thioureido)phenoxy)-N-(2-hydroxy-1-phenylethyl)-7-methoxyquinoline-6-carboxamide] — 1.7-fold higher, 234 nM
- COc1cc2nccc(Oc3ccc(NC(=S)NC(=O)Cc4ccccc4)cc3F)c2cc1C(=O)NCC(O)c1nnn(C)n1 (stereo not drawn) [Example 30, 4-(2-Fluoro-4-(3-(2-phenylacetyl)thioureido)phenoxy)-N-(2-hydroxy-2-(2-methyl-2H-tetrazol-5-yl)ethyl)-7-methoxyquinoline-6-carboxamide] — 3.5-fold lower, 40 nM
- COc1cc2nccc(Oc3ccc(NC(=S)NC(=O)Cc4ccccc4)cc3F)c2cc1C(=O)N1CCC(N2CCCC2)CC1 [Example 51, N-(3-Fluoro-4-(7-methoxy-6-(4-(pyrrolidin-1-yl)piperidine-1-carbonyl)quinolin-4-yloxy)phenylcarbamothioyl)-2-phenylacetamide] — within 1.5-fold, 134 nM
- COc1cc2nccc(Oc3ccc(NC(=S)NC(=O)Cc4ccccc4)cc3F)c2cc1C(=O)N1CCC(O)C1 (stereo not drawn) [Example 52, N-(3-Fluoro-4-(6-(3-hydroxypyrrolidine-1-carbonyl)-7-methoxyquinolin-4-yloxy)phenylcarbamothioyl)-2-phenylacetamide] — within 1.5-fold, 142 nM
